Reference: patent US20210244698A1, “DIFFUSION ENHANCING COMPOUNDS AND THEIR USE WITH THROMBECTOMY AND EMBOLECTOMY AND OTHER VASCULAR DISEASE PROCEDURES” (DIFFUSION PHARMACEUTICALS LLC, priority 2018, published 2021)

Key:
[1] = Solubility of TSC in water / aqueous solution with cyclodextrin; assay type: physicochemical
Excerpt: (§1) The use of gamma-cyclodextrin with TSC increases the solubility of TSC in water by 3-7 times. […] The solutions need not be equal-molar. The incorporation of the gamma cyclodextrin also allows for TSC to be absorbed into the blood stream when injected intramuscularly.
A trans carotenoid such as TSC can be formulated with a cyclodextrin as noted above and a non-metabolized sugar such as mannitol (e.g. d-mannitol to adjust the osmotic pressure to be the same as that of blood). Solutions containing over 20 mg TSC/ml of solution can be made this way. This solution can be added to isotonic saline or to other isotonic solutions in order to dilute it and still maintain the proper osmolality.

[2] = Stability of TSC in formulation as a function of pH; assay type: physicochemical
Procedure: Mannitol can be used to adjust osmolality and its concentration varies depending on the concentration of other ingredients. The glycine is held constant. […] The use of glycine is compatible with lyophilization. Alternatively, the TSC and cyclodextrin is formulated using a 50 mM bicarbonate buffer in place of the glycine.

[3] = Absorption of TSC into the blood stream after intramuscular injection with gamma cyclodextrin; assay type: in vivo; details: rats
Excerpt: as §1

CC(/C=C/C=C(\C)C(=O)[O-])=C\C=C\C=C(C)\C=C\C=C(/C)C(=O)[O-].[Na+].[Na+] [TSC, trans sodium crocetinate]
TSC content of aqueous solution ([1]; TSC and gamma-cyclodextrin, aqueous solution): ≤ 44 milligrams of TSC per ml of solution | TSC content of solution ([1]; formulated with a cyclodextrin and mannitol): over 20 mg TSC/ml of solution | stability versus pH [2]: more stable at higher pHs | absorption into the blood stream when injected intramuscularly [3]: Absorption is quick
